Values of other authors, collected in publication PMC10698917, “Antioxidant and antidiabetic flavonoids from the leaves of Dypsis pembana (H.E.Moore) Beentje & J.Dransf., Arecaceae: in vitro and molecular docking studies” (BMC Complementary Medicine and Therapies, 2023).

System: HepG-2 cell line
Design: method as in PMID 37391756
Settings: cited from earlier work

| Compound | Cytotoxic activity |
| --- | --- |
| O=c1cc(-c2ccc(O)cc2)oc2c([C@@H]3O[C@H](CO)[C@@H](O)[C@H](O)[C@H]3O)c(O)c([C@@H]3O[C@H](CO)[C@@H](O)[C@H](O)[C@H]3O)c(O)c12 [Compound 7, vicenin-II] | promising cytotoxic activities |
| O=c1cc(-c2ccc(O)cc2)oc2cc(O)c([C@@H]3O[C@H](CO)[C@@H](O)[C@H](O)[C@H]3O)c(O)c12 [Compound 13, isovitexin] | promising cytotoxic activities |
